Laboratory results taken from patent US20210228695A1 (REALTA HOLDINGS, LLC, priority 2018, published 2021).
Like-named read-outs stand apart in the source and are kept apart here. Ends that are not written are not given here.

Legend:
[1] = patients frequently exposed to ceftriaxone; cited from earlier work
[2] = human, in vivo
Protocol: A patient with chronic active Epstein-Barr virus disease and hemophagocytic lymphohistiocytosis presented with ceftriaxone-induced hemolytic anemia. The patient had been evaluated in the emergency department for fever and possible sepsis after recently receiving chemotherapy. In the emergency department they received a dose of ceftriaxone (50 mg/kg). The patient had received ceftriaxone on three previous occasions with no history of adverse reaction. Within an hour they developed back pain, tachycardia and tachypnea. Over the next three hours they developed worsening distress, failed continuous positive airway pressure and required endotracheal intubation with mechanical ventilation. They also experienced hypotension requiring fluid resuscitation and a continuous epinephrine infusion.
Four hours later, their hemoglobin had decreased to 6.1 g/dL, followed by a point-of-care hemoglobin of 5.1 g/dL. They received four packed red blood cell transfusions (each 10 mL/kg) within 72 hours, after which, their hemoglobin stabilized at their initial baseline (FIG. 1A). […] There were spherocytes on their peripheral blood smear as well as red blood cell aggregation. On admission, one day later, and five days later, their total bilirubin level was 1.5 mg/dL, 10.7 mg/dL, and 23.1 mg/dL respectively, with 90% being conjugated. […]

[3] = system: classical complement pathway; details: 0.75 mM PIC1 and ceftriaxone together
Protocol: The CHUHE assay utilizes human serum and human erythrocytes to measure complement-mediated hemolysis for the specific serum and specific erythrocytes that are co-incubated.
The patient's blood and sera were provided as discarded de-identified samples from residual specimens in the Blood Bank. […] Standard veronal complement buffers were utilized.
The modified CHUHE assay was performed as follows. The patient's sera (0.1 ml) was combined with ceftriaxone (10 μg/ml final concentration) in an ice-water bath for 30 minutes to enhance immune complex formation. This solution was then warmed to 24° C. […] Samples were incubated at 37° C. for one hour, with hemolysis stopped by the addition of 2.0 ml of GVBS-EDTA buffer (veronal-buffered saline with 0.1% gelatin and 10 mM EDTA). Erythrocytes were sedimented, and free hemoglobin was measured by spectrophotometry at 412 nm. Two independent experiments (n=2) were performed. Without wishing to be bound by theory, adaptation of the CHUHE hemolytic assay by adding exogenous ceftriaxone to the patient's serum and erythrocytes allowed for evaluation as to whether the hemolysis was ceftriaxone-initiated.

[4] = PIC1 administered to a patient with ceftriaxone-induced hemolysis (Example 2); type: in vivo, human
Protocol: A patient is tested for possible hemolysis as a result of treatment with ceftriaxone. The patient has an erythrocyte hemoglobin level of 6.5 g/dL, a total bilirubin level of 12.4 mg/dL, and an LDH of 16,500. The patient receives packed red blood cell transfusion, and ceftriaxone is discontinued.
Four hours later, the patient has an erythrocyte hemoglobin level of 7.9 g/dL, a total bilirubin level of 8.4 mg/dL, and an LDH of 10,500, all of which show improvement. […] The bilirubin and LDH levels continue to improve. The patient receives additional packed red blood cell transfusions as needed.

## CO/N=C(\C(=O)N[C@@H]1C(=O)N2C(C(=O)O)=C(CSc3nc(=O)c(=O)[nH]n3C)CS[C@H]12)c1csc(N)n1 [ceftriaxone, reference compound]
[1]
  patients developing anti-ceftriaxone antibodies: 12.5%
[2]
  total bilirubin level: 23.1 mg/dL

## IALILEPICCQERAA-dPEG24 (cysteine pairing not given here) [PIC1]
[3]
  hemolysis relative to the no ceftriaxone control: returned hemolysis to the level of the no ceftriaxone control
[4]; 150 mg/kg PIC1, then daily dose for three days, with transfusions as needed
  clinical outcome: completely recovered from the hemolysis
[4]; four hours after 150 mg/kg PIC1, 12.4 mg/dL before
  total bilirubin level: 8.4 mg/dL
[4]; four hours after 150 mg/kg PIC1, 6.5 g/dL before
  erythrocyte hemoglobin level: 7.9 g/dL
[4]; four hours after 150 mg/kg PIC1, 16,500 before
  LDH: 10,500
